The text below walks through data of patent US10703757B2, “Compounds and methods for CDK8 modulation and indications therefor” (Plexxikon Inc., priority 2016, dated 2020).

A word on the IC50: it is the point on the concentration scale where inhibition reaches its midpoint. A higher IC50 goes with a need for much substance.

Experiment [1] has as its system CDK8 (phosphorylation of STAT1 at serine 727 in A549 cells). Kind of experiment: Cell based Phospho-STAT1 assay (IFNγ-stimulated A549 cells, AlphaLISA). Particulars: Homo sapiens, A549, A549 cells, phospho-STAT1 after IFNγ stimulation. The method, boiled down: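 A549 cells given serial compound dilutions for 1 h at 37 °C, then stimulated with IFNγ at 10 ng/mL final for 30 min. Lysate STAT1 Ser727 phosphorylation measured by AlphaLISA; % inhibition vs stimulated/unstimulated DMSO controls, IC50 by nonlinear regression.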

Experiment [2] deals with CDK8 (TCF/LEF luciferase reporter in HCT116 cells). Put plainly: Cell based TCF/LEF reporter assay (HCT116+TCF/LEF luciferase). The settings on record: Homo sapiens, HCT-116, 24 h. In a few lines:
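Luciferase readout was corrected for viability (CellTiter-Fluor) and scaled between DMSO high and 10 uM CCT251545 low controls, giving IC50 by nonlinear regression. Compounds, serially diluted, were incubated 24 h at 37 °C on HCT116 clones stably expressing a TCF/LEF-driven luciferase reporter.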
On the technique in general: In a reporter assay the amount or activity of a reporter protein is the signal.

With `N#CC1CC=C(c2nccn3ncc(-c4ccc(N5CCOCC5)c(F)c4)c23)CC1` (centres unmarked) [Compound P-0102, 4-(3-(3-fluoro-4-morpholinophenyl)pyrazolo[1,5-a]pyrazin-4-yl)cyclohex-3-ene-1-carbonitrile], the concentration for half-maximal inhibition (IC50) in experiment [1] and in experiment [2] was 0.0001 to 0.1 µM each time.

On to `CC(C)(C#N)Cn1cc(-c2ccc(-c3cnn4ccnc(C5=CCC(C#N)CC5)c34)cc2)cn1` (centres unmarked) [Compound P-0048, 4-(3-(4-(1-(2-cyano-2-methylpropyl)-1H-pyrazol-4-yl)phenyl)pyrazolo[1,5-a]pyrazin-4-yl)cyclohex-3-ene-1-carbonitrile], for which the concentration for half-maximal inhibition (IC50) in experiment [1] and in experiment [2] was 0.0001 to 0.1 µM in each case.

As for `CC(C)(O)C#Cc1cccn2ncc(-c3cnn(-c4ccc(F)cc4)c3)c12` [Compound P-0283, 4-(3-(1-(4-fluorophenyl)-1H-pyrazol-4-yl)pyrazolo[1,5-a]pyridin-4-yl)-2-methylbut-3-yn-2-ol], the concentration for half-maximal inhibition (IC50) in experiment [1] and in experiment [2] was 0.1 to 1 µM each time.

For `Cn1cc(-c2ccc(-c3cnn4ccnc(C5=CCC(C#N)CC5)c34)cc2)cn1` (centres unmarked) [Compound P-0323, 4-(3-(4-(1-methyl-1H-pyrazol-4-yl)phenyl)pyrazolo[1,5-a]pyrazin-4-yl)cyclohex-3-ene-1-carbonitrile], the 50% inhibitory concentration (IC50) in experiment [1] and in experiment [2] was 0.0001 to 0.1 µM throughout.

For `N#CC1CC=C(c2c(-c3ccc(OCCOC4CCOCC4)cc3)cnc3[nH]ccc23)CC1` (centres unmarked) [Compound P-0172, 4-(5-(4-(2-((tetrahydro-2H-pyran-4-yl)oxy)ethoxy)phenyl)-1H-pyrrolo[2,3-b]pyridin-4-yl)cyclohex-3-ene-1-carbonitrile], the concentration for half-maximal inhibition (IC50) in experiment [1] and in experiment [2] was 0.0001 to 0.1 µM in each case.

As for `CC(C)(O)C#Cc1cccn2ncc(-c3ccc4cc(C(N)=O)ccc4c3)c12` [Compound P-0191, 6-(4-(3-hydroxy-3-methylbut-1-yn-1-yl)pyrazolo[1,5-a]pyridin-3-yl)-2-naphthamide], the figures for the IC50 in experiment [1] and in experiment [2] were 0.0001 to 0.1 µM and 0.1 to 1 µM, respectively.

As for `N#CC1CCN(c2cccn3ncc(-c4cccc(OCC(F)(F)F)c4)c23)CC1` [Compound P-0251, 1-(3-(3-(2,2,2-trifluoro-ethoxy)phenyl)pyrazolo[1,5-a]pyridin-4-yl)piperidine-4-carbonitrile], the IC50 in experiment [1] and in experiment [2] was 1 to 10 µM each time.

As to `Cn1cc(-c2ccc(-c3cnn4cccc(C#CC5(O)CCC5)c34)cc2)cn1` [Compound P-0310, 1-((3-(4-(1-methyl-1H-pyrazol-4-yl)phenyl)pyrazolo[1,5-a]pyridin-4-yl)ethynyl)cyclobutan-1-ol], the IC50 in experiment [1] and in experiment [2] was 0.0001 to 0.1 µM each time.

For `CC(C)(C#Cc1cccn2ncc(-c3ccc(-c4cnn(CCCC#N)c4)cc3)c12)C(N)=O` [Compound P-0461, 4-(3-(4-(1-(3-cyanopropyl)-1H-pyrazol-4-yl)phenyl)pyrazolo[1,5-a]pyridin-4-yl)-2,2-dimethylbut-3-ynamide], the IC50 in experiment [1] and in experiment [2] was 0.0001 to 0.1 µM in each case.

With `N#CC1CCN(c2cccn3ncc(-c4ccc(-n5cccn5)cc4)c23)CC1` [Compound P-0363, 1-(3-(4-(1H-pyrazol-1-yl)phenyl)pyrazolo[1,5-a]pyridin-4-yl)piperidine-4-carbonitrile], the half-maximal inhibitory concentration (IC50) in experiment [1] and in experiment [2] was 0.0001 to 0.1 µM each time.

In the case of `Cc1nc2cc(-c3cnn4ccnc(C5=CCC(C#N)CC5)c34)ccc2[nH]1` (centres unmarked) [Compound P-0056, 4-(3-(2-methyl-1H-benzo[d]imidazol-5-yl)pyrazolo[1,5-a]pyrazin-4-yl)cyclohex-3-ene-1-carbonitrile], the concentration for half-maximal inhibition (IC50) in experiment [1] and in experiment [2] was 0.0001 to 0.1 µM in each case.

For `CC1(COc2ccc(-c3cnn4ccnc(C5=CCC(C#N)CC5)c34)cc2)COC1` (centres unmarked) [Compound P-0055, 4-(3-(4-((3-methyloxetan-3-yl)methoxy)phenyl)pyrazolo[1,5-a]pyrazin-4-yl)cyclohex-3-ene-1-carbonitrile], the IC50 in experiment [1] and in experiment [2] was 0.0001 to 0.1 µM throughout.

As to `N#CC1CCC(c2cccn3ncc(-c4ccc(NCCN5CCOCC5)nc4)c23)CC1` (centres unmarked) [Compound P-0138, 4-(3-(6-((2-morpholinoethyl)amino)pyridin-3-yl)pyrazolo[1,5-a]pyridin-4-yl)cyclohexane-1-carbonitrile], the IC50 in experiment [1] and in experiment [2] was 0.0001 to 0.1 µM each time.

On to `N#CC1CCN(c2cccn3ncc(-c4ccc(-c5cnn(C(F)F)c5)cc4)c23)CC1` [Compound P-0415, 1-(3-(4-(1-(difluoromethyl)-1H-pyrazol-4-yl)phenyl)pyrazolo[1,5-a]pyridin-4-yl)piperidine-4-carbonitrile], for which the half-inhibitory concentration (IC50) in experiment [1] and in experiment [2] was 0.0001 to 0.1 µM in each case.

For `CC(C)(O)Cn1ncc2cc(-c3cnn4ccnc(C#CC(C)(C)C(N)=O)c34)ccc21` [Compound P-0091, 4-(3-(1-(2-hydroxy-2-methylpropyl)-1H-indazol-5-yl)pyrazolo[1,5-a]pyrazin-4-yl)-2,2-dimethylbut-3-ynamide], the IC50 in experiment [1] and in experiment [2] was 0.0001 to 0.1 µM each time.

`N#CCCCn1cc(-c2ccc(-c3cnn4ccnc(C5=CCC(C#N)CC5)c34)cc2)cn1` (centres unmarked) [Compound P-0009, 4-(3-(4-(1-(3-cyanopropyl)-1H-pyrazol-4-yl)phenyl)pyrazolo[1,5-a]pyrazin-4-yl)cyclohex-3-ene-1-carbonitrile]: the IC50 in experiment [1] and in experiment [2] was 0.0001 to 0.1 µM throughout.

As for `CC(C)(O)Cn1cc(-c2ccc(-c3cnn4ccnc(C5CCC(C#N)CC5)c34)cc2)cn1` (centres unmarked) [Compound P-0064, (1r,4r)-4-(3-(4-(1-(2-hydroxy-2-methylpropyl)-1H-pyrazol-4-yl)phenyl)pyrazolo[1,5-a]pyrazin-4-yl)cyclohexane-1-carbonitrile], the IC50 in experiment [1] and in experiment [2] was 0.0001 to 0.1 µM throughout.

Consider `N#CC1CC=C(c2nccn3ncc(-c4ccc(OCC5CCCCO5)cc4)c23)CC1` (centres unmarked) [Compound P-0079, 4-(3-(4-((tetrahydro-2H-pyran-2-yl)methoxy)phenyl)pyrazolo[1,5-a]pyrazin-4-yl)cyclohex-3-ene-1-carbonitrile], for which the IC50 in experiment [1] and in experiment [2] was 0.0001 to 0.1 µM in each case.

Turning to `Cc1cc(-c2cnn3ccnc(C4CCC(C#N)CC4)c23)ccc1-c1cnn(CC(C)(C)O)c1` (centres unmarked) [Compound P-0025, (1s,4s)-4-(3-(4-(1-(2-hydroxy-2-methylpropyl)-1H-pyrazol-4-yl)-3-methylphenyl)pyrazolo[1,5-a]pyrazin-4-yl)cyclohexane-1-carbonitrile], the IC50 in experiment [1] and in experiment [2] was 0.0001 to 0.1 µM each time.

Turning to `Cc1n[nH]c2cc(-c3cnn4ccnc(C5=CCC(C#N)CC5)c34)ccc12` (centres unmarked) [Compound P-0071, 4-(3-(3-methyl-1H-indazol-6-yl)pyrazolo[1,5-a]pyrazin-4-yl)cyclohex-3-ene-1-carbonitrile], the 50% inhibitory concentration (IC50) in experiment [1] and in experiment [2] was 0.0001 to 0.1 µM in each case.

On to `Cn1cc(-c2ccc(-c3cnn4cccc(C#CC(C)(C)N)c34)cc2)cn1` [Compound P-0309, 2-methyl-4-(3-(4-(1-methyl-1H-pyrazol-4-yl)phenyl)pyrazolo[1,5-a]pyridin-4-yl)but-3-yn-2-amine], for which the 50% inhibitory concentration (IC50) in experiment [1] was 0.0001 to 0.1 µM; in experiment [2], 0.1 to 1 µM.

For `CC(=O)Nc1cc(-c2cnn3ccnc(C4=CCC(C#N)CC4)c23)ccn1` (centres unmarked) [Compound P-0080, N-(4-(4-(4-cyanocyclohex-1-ene-1-yl)pyrazolo[1,5-a]pyrazin-3-yl)pyridin-2-yl)acetamide], the IC50 in experiment [1] and in experiment [2] was 0.0001 to 0.1 µM each time.

Regarding `CC(C)(C)COc1ccc(-c2cnn3cccc(N4CCC(C#N)CC4)c23)cc1` [Compound P-0266, 1-(3-(4-(neopentyloxy)phenyl)pyrazolo[1,5-a]pyridin-4-yl)piperidine-4-carbonitrile], the IC50 in experiment [1] and in experiment [2] was 1 to 10 µM each time.

For the molecule `CC(C)(C#Cc1cccn2ncc(-c3ccc(-c4cnn(CCS(C)(=O)=O)c4)cc3)c12)C(N)=O` [Compound P-0464, 2,2-dimethyl-4-(3-(4-(1-(2-(methylsulfonyl)ethyl)-1H-pyrazol-4-yl)phenyl)pyrazolo[1,5-a]pyridin-4-yl)but-3-ynamide], the 50% inhibitory concentration (IC50) in experiment [1] and in experiment [2] was 0.0001 to 0.1 µM in each case.

`Cn1cc(-c2ccc(-c3cnn4cccc(N5CC6CCC(C5)C6C#N)c34)cc2)cn1` (centres unmarked) [Compound P-0159, 3-(3-(4-(1-methyl-1H-pyrazol-4-yl)phenyl)pyrazolo[1,5-a]pyridin-4-yl)-3-azabicyclo[3.2.1]octane-8-carbonitrile]: the half-inhibitory concentration (IC50) in experiment [1] and in experiment [2] was 0.1 to 1 µM in each case.

As to `CC(C)(C)C(=O)Nc1ccc(-c2cnn3cccc(N4CCC(C#N)CC4)c23)cc1` [Compound P-0254, N-(4-(4-(4-cyanopiperidin-1-yl)pyrazolo[1,5-a]pyridin-3-yl)phenyl)pivalamide], the half-inhibitory concentration (IC50) in experiment [1] and in experiment [2] was 0.1 to 1 µM throughout.

In the case of `N#CC1CC=C(c2nccn3ncc(-c4ccc(OCCN5CCOCC5)cc4)c23)CC1` (centres unmarked) [Compound P-0085, 4-(3-(4-(2-morpholinoethoxy)phenyl)pyrazolo [1,5-a]pyrazin-4-yl)cyclohex-3-ene-1-carbonitrile], the IC50 in experiment [1] and in experiment [2] was 0.0001 to 0.1 µM each time.

On to `CC(C)(O)Cn1cc(-c2ccc(-c3cnn4ccnc(C5CCC(C#N)CC5)c34)c(F)c2)cn1` (centres unmarked) [Compound P-0001, (1s,4s)-4-(3-(2-fluoro-4-(1-(2-hydroxy-2-methylpropyl)-1H-pyrazol-4-yl)phenyl)pyrazolo[1,5-a]pyrazin-4-yl)cyclohexane-1-carbonitrile], for which the IC50 in experiment [1] and in experiment [2] was 0.0001 to 0.1 µM in each case.
